Our source for the Ki values is BindingDB's records for doi:10.1016/j.bmcl.2009.03.043 (Vertex Pharmaceuticals, 2009).

The Ki is a dissociation constant, usually derived from enzyme kinetics or from competition with a known ligand. Low values mean tighter binding, high ones weaker binding.

SMILES strings stand for the structures.

For test [1], the target named is Tyrosine-protein kinase SYK (Homo sapiens) (UniProt P43405). In words: Inhibition of SYK.
The target of test [2] is 3-phosphoinositide-dependent protein kinase 1 (Homo sapiens) (UniProt O15530). In words: Inhibition of PDK1.
Test [3] has as its target Mitogen-activated protein kinase 10 (Homo sapiens, UniProt P53779). In words: Inhibition of JNK3 by spectrophotometric coupled enzyme assay.

Sequence of Mitogen-activated protein kinase 10 (P53779 whole entry): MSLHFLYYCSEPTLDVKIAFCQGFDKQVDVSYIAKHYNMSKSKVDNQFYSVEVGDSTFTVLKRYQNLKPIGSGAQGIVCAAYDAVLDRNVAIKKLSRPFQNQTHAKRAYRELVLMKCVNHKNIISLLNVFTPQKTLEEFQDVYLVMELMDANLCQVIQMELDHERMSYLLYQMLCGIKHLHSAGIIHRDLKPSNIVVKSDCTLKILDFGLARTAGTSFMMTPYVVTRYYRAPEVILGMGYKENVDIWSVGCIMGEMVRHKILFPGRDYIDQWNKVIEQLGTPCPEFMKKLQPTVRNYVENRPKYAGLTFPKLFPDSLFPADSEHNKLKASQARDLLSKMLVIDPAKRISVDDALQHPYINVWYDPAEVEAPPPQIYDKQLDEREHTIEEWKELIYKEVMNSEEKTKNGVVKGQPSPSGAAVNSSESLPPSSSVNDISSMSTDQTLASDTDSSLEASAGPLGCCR

As to `Cc1ccc2c(c1)N(Cc1cc(F)cc3c1OCOC3)C(=O)C2N=O` (configuration not stated) [1-((6-fluoro-4H-benzo[d][1,3]dioxin-8-yl)methyl)-3-(hydroxyimino)-6-methylindolin-2-one], the inhibition constant Ki in test [1] and in test [2] was over 30 µM in each case.
Take `Cc1ccc2c(c1)C(N=O)C(=O)N2Cc1ccccc1` (configuration not stated) [1-benzyl-3-(hydroxyimino)-5-methylindolin-2-one]: the inhibition constant Ki in test [3] is over 10 µM.
Same read-out and setting: under `O=NC1C(=O)N(Cc2ccccc2)c2ccccc21` (configuration not stated) [1-benzyl-3-(hydroxyimino)indolin-2-one] stands over 10 µM.
Still for that read-out and setting: under `O=NC1C(=O)N(Cc2ccccc2)c2ccc(F)cc21` (configuration not stated) [1-benzyl-5-fluoro-3-(hydroxyimino)indolin-2-one] stands over 10 µM; under `O=NC1C(=O)N(Cc2ccccc2[N+](=O)[O-])c2ccccc21` (configuration not stated) [3-(hydroxyimino)-1-(2-nitrobenzyl)indolin-2-one], over 10 µM.
Same read-out and setting: under `Cc1cccc(CN2C(=O)C(N=O)c3cc(C)ccc32)c1` (configuration not stated) [3-(hydroxyimino)-5-methyl-1-(3-methylbenzyl)indolin-2-one] stands over 10 µM.
